Experimental data taken from patent US20030138856A1, “Process for the measurement of dinophysistoxin and yessotoxin” (priority 2000, published 2003).

Tested on: E-cadherin and related antigens ECRA100 and ECRA135 in MCF-7 cells
Assay: E-cadherin, ECRA135 and ECRA100 levels in cytosoluble extracts of toxin-treated MCF-7 cells (SDS-PAGE, anti-E-cadherin immunoblotting, densitometry)
Type: cell-based, human
Conditions: for pattern of E-cadherin and related antigens on immunoblot (FIG. 1): 50 nM each agent, 18 hr at 37° C.; for concentration above which the pattern characteristic for each group of toxins is maintained when the two groups are present at the same time: both toxins together in the cell culture
Protocol: The MCF-7 cell line employed in these experiments has been obtained from the European Collection of Cell Cultures (ECACC No: 86012803; CB No: CB2705). Cells have been maintained at 37° C. in an atmosphere containing 5% CO2 in Petri dishes, in a culture medium composed of Dulbecco's modified MEM, containing foetal bovine serum (10%), nonessential aminoacids (1%) and 2 mM glutamine. Cell treatments have been carried out by adding appropriate aliquots of toxins from stock solutions prepared with absolute ethanol, and control cultures received an identical volume of vehicle. Working solutions of the different agents were obtained by serial dilutions of stock solutions, represented by 50 μM okadaic acid and 500 μM yessotoxin, respectively, and were stored at −20° C., in glass vials, protected from light. The ethanol concentrations in culture media has never been higher than 0.5% (v/v), which represents a concentration uncapable to affect the molecular parameters measured in these experiments.
The cellular extracts employed in the present analyses have been obtained from the cells adhering to culture vessels at the end of the indicated treatments, and the procedure was carried out at 4° C. Cells were washed three times with 20 mM phosphate buffer, pH 7.4, containing 0.15 M NaCl (PBS) and were then lysed by the addition of 25 μl of lysis buffer/cm^2 of culture surface area, and by keeping cells in contact with this solution for 10 minutes at 4° C. The lysis buffer was composed of PBS, containing: 0.5% (w/v) Na deoxycholate, 0.1% (w/v) Na dodecylsulfate (SDS), 1% (v/v) Triton X-100, 0.1 mg/ml phenylmethyl sulfonyl fluoride (PMSF). Cellular lysates were then centrifuged for 30 minutes at 16000 xg, and the supernatants of this centrifugation (cytosoluble extracts) were recovered and used to measure their total protein content by a […] method, using bicinchoninic acid (Smith P. K et al., 1985, Anal. Biochem., 150:76). Cytosoluble extracts were then brought to a final 2% SDS, 5% β-mercaptoethanol and 20% glycerol concentration, and were treated for 5 min at 100° C., before being used for protein fractionation by electrophoresis.
Samples, usually containing the same amount of protein, corresponding to about 50 μg, were subjected to polyacrylamide gel electrophoresis in the presence of SDS, according to the procedure by Laemmli (Laemmli U. K. , 1970, Nature, 227:680), using separating gels containing 10% acrylamide monomer. At the end of the electrophoresis (running time about 3 hr at 170 Volts), proteins were electrophoretically transferred to a nitrocellulose membrane (Protran B83), and were then stained with Ponceau S.
Aspecific binding sites on the membrane were then saturated by a 1 hr incubation at room temperature with a solution composed of 20 mM Tris-HCl, pH 7.5 at 25° C., 150 mM NaCl (TBS), containing 3% (w/v) low fat dry milk and 1 mM CaCl2. The membrane was then incubated with TBS containing 1 % (w/v) low fat dry milk, 1 mM CaCl2, and 2 μg of anti-E-cadherin antibody/ml buffer, for 1 hr at room temperature. At the end of the incubation the membrane was washed four times for 5 min and then a fifth time for 10 min with TBS containing 0.05% (w/v) Tween 20 (TBS-Tween buffer). The membrane was then incubated with TBS-Tween containing 1% (w/v) low fat dry milk and secondary antibody (horse radish peroxydase conjugated anti-mouse Ig antibody) at a 1:3000 dilution, for 1 hr at room temperature. At the end of this incubation, the membrane was washed as previously described, and the antigens were then detected by the ECL procedure and autoradiography, using Kodak X-Omat films. The electropherogram was then subjected to densitometric scanning, and the absorbance measured from the peak area was recorded and used to quantify the detected antigens. […]

[1] = MCF-7 cells treated with 50 nM OA
[2] = MCF-7 cells, YTX 1 μM, 24 hr incubation, n=4

C=C1[C@@H](O)[C@@H]2O[C@]3(CC[C@H](/C=C/[C@@H](C)[C@@H]4CC(C)=C[C@@]5(O[C@H](C[C@@](C)(O)C(=O)O)CC[C@H]5O)O4)O3)CC[C@H]2O[C@@H]1[C@@H](O)C[C@H](C)[C@H]1O[C@@]2(CCCCO2)CC[C@H]1C [OA, okadaic acid]
E-cadherin, % of total immunoreactivity [1]: 77.6±12.3%
ECRA100, % of total immunoreactivity [1]: 1.8±3.1%
ECRA135, % of total immunoreactivity [1]: 20.6±9.6%
relative total immunoreactivity (Σ), % of that in extracts from control cells [1]: 15.4±8.7%
pattern of E-cadherin and related antigens on immunoblot (FIG. 1) (MCF-7 cells): appearance of ECRA135
OA concentration at which ECRA100 levels are minimal (MCF-7 cells, 20 hr): higher than 50 nM
OA concentration at which ECRA135 level is maximal (MCF-7 cells, 20 hr): 75 nM
OA concentration at which detection of ECRA135 starts (MCF-7 cells, 20 hr): 20 to 30 nM
OA concentration at which the decrease in immunoreactive material (Σ) can be detected (MCF-7 cells, 20 hr): higher than 10 nM
OA concentration at which the decrease in immunoreactive material (Σ) is maximal (MCF-7 cells, 20 hr): higher than 75 nM
equivalent OA concentrations within which proportionality in the assay is kept (MCF-7 cells, 20 hr): 30 to 75 nM
equivalent OA concentrations within which proportionality in the assay is kept, as mass concentration (MCF-7 cells, 20 hr, corresponding to 30-75 nM): 25-60 ng OA/ml
concentration above which the pattern characteristic for each group of toxins is maintained when the two groups are present at the same time: higher than 35 nM

C=CCC(=C)/C=C/[C@@](C)(O)[C@H]1O[C@@H]2C[C@@H]3O[C@@H]4C[C@@H]5O[C@@H]6C[C@@H]7O[C@@H]8C[C@@H]9O[C@@H]%10C[C@@H]%11O[C@](C)(CCOS(=O)(=O)O)[C@@H](OS(=O)(=O)O)C[C@H]%11O[C@H]%10C[C@H]9O[C@H]8CC[C@@]7(C)O[C@@]6(C)CC[C@H](C)[C@H]5O[C@H]4C[C@@]3(C)O[C@H]2CC1=C [YTX, yessotoxin]
ECRA135 detection after treatment with YTX alone (MCF-7 cells): never been detected
pattern of E-cadherin and related antigens on immunoblot (FIG. 1) (MCF-7 cells): most immunoreactivity is associated with the 100 kDa (101.9±3.2 kDa) band
YTX concentration at which the increase in immunoreactive material (Σ) is detectable (MCF-7 cells, 20 hr): about 0.2 nM
YTX concentration at which the increase in immunoreactive material reaches maximal levels (MCF-7 cells, 20 hr): ≥ 1 nM
equivalent YTX concentrations within which proportionality in the assay is maintained, as mass concentration (MCF-7 cells, 20 hr, corresponding to 0.2-0.5 nM): 240-600 pg YTX/ml
ECRA135 detection (MCF-7 cells, YTX 1 μM, 24 hr incubation): undetectable
E-cadherin, share of total immunoreactivity [2]: 52.0±1.7
ECRA100, share of total immunoreactivity [2]: 48.0±1.7
relative total immunoreactivity (Σ), as compared to controls [2]: 190±32%
E-cadherin level, percentage of total immunoreactivity (E-cadherin+ECRA100+ECRA135) of the sample ([YTX] ≧0.5 nME/[DTX] <25 nME): 40-60%
ECRA100 level, percentage of total immunoreactivity of the sample ([YTX] ≧0.5 nME/[DTX] <25 nME): 40-60%
relative total immunoreactivity (Σ), percentage of total immunoreactivity in the controls ([YTX] ≧0.5 nME/[DTX] <25 nME): 150-250%
concentration above which the pattern characteristic for each group of toxins is maintained when the two groups are present at the same time: > 0.4 nM
